Assay results as given in patent publication US11634434B2, “Bifunctional alpha-synuclein binding agents and uses thereof” (University of Saskatchewan, priority 2016, dated 2023).
Like-named read-outs stand apart in the source and are kept apart here.

Tests used:
[1] = tested on: protein aggregation in substantia nigra; experiment: Thioflavin S staining of substantia nigra of ASIA-treated rats; type: in vivo, rat
Experimental: (§1) Rats are subjected to 7-day chronic injection of 3 mg/kg of each test compound, and a forced swim test is conducted after the seventh day to measure motor deficits. […] For a second round of studies, rats are divided into four treatment groups, and the same experiments were repeated:
Tissue sections of substantia nigra from each of the treatment groups in the rat studies were evaluated for the presence of tyrosine hydroxylase, DNA (using the nuclear stain DAPI) and alpha-synuclein using immunohistochemistry. After behavioural tests were completed, the rats were euthanized, perfused and fixed in 4% paraformaldehyde. 40 μm brain slices were utilized for the immunohistochemistry procedure. Anti-Tyrosine Hydroxylase—a primary antibody for tyrosine positive neurons, host species rabbit, Millipore, Sigma Aldrich. DAPI—nuclear stain already pre-conjugated (NucBlue Fixed Cell Stain ReadyProbe reagent, Thermo Fisher Scientific). Anti-Alpha Synuclein—primary antibody for Anti-Synuclein, host species mouse, Abcam. Primary antibodies were diluted 1:500. Alexa Fluoro 488 Donkey anti-rabbit IgG—secondary antibody with fluorescent tag, Invitrogen, Thermo Fisher Scientific. Alexa Fluoro 594 Goat anti-mouse IgG—secondary antibody with fluorescent tag, Life Technologies, Thermo Fisher Scientific. Secondary antibodies were diluted 1:1000. Thioflavin S—stain for alpha-synuclein aggregates, Sigma Aldrich. […]

[2] = tested on: alpha-synuclein in substantia nigra; experiment: Immunohistochemistry of alpha-synuclein in substantia nigra of ASIA-treated rats; type: in vivo, rat; conditions: 7 days of chronic injections
Experimental: (§2) male Sprague-Dawley rats are used (200 g-300 g). All animals are handled ethically following approved protocols. For the first round of studies, rats are divided into five treatment groups:
as §1
Tissue sections of substantia nigra from each of the treatment groups in the rat studies were evaluated for the presence of tyrosine hydroxylase, DNA (using the nuclear stain DAPI) and alpha-synuclein using immunohistochemistry. After behavioural tests were completed, the rats were euthanized, perfused and fixed in 4% paraformaldehyde. 40 μm brain slices were utilized for the immunohistochemistry procedure. Anti-Tyrosine Hydroxylase—a primary antibody for tyrosine positive neurons, host species rabbit, Millipore, Sigma Aldrich. DAPI—nuclear stain already pre-conjugated (NucBlue Fixed Cell Stain ReadyProbe reagent, Thermo Fisher Scientific). Anti-Alpha Synuclein—primary antibody for Anti-Synuclein, host species mouse, Abcam. Primary antibodies were diluted 1:500. Alexa Fluoro 488 Donkey anti-rabbit IgG—secondary antibody with fluorescent tag, Invitrogen, Thermo Fisher Scientific. Alexa Fluoro 594 Goat anti-mouse IgG—secondary antibody with fluorescent tag, Life Technologies, Thermo Fisher Scientific. Secondary antibodies were diluted 1:1000. Thioflavin S—stain for alpha-synuclein aggregates, Sigma Aldrich. Thioflavin S stock concentration at 5 mg/ml. Final dilution 1:100.
Tyrosine hydroxylase is a marker for dopaminergic neurons and is used to confirm that the desired cells are being imaged. DAPI (4′,6-diamidino-2-phenylindole) is a stain that binds to A-T rich regions in DNA, and is used to identify cell nuclei. Thioflavin S is used to stain aggregated proteins such as amyloid plaques. A higher level of staining with thioflavin S is indicative of a higher degree of protein aggregation.

alpha-synuclein [3] = target: T1, alpha-synuclein (Homo sapiens, UniProt P37840); experiment: Isothermal titration calorimetry (ITC) binding to alpha-synuclein; conditions: for increase of Ka for a 10-fold decrease in ionic strength: 100 mM KCl versus 1.0M KCl; for # Binding sites: Table 2; for Bind to N and C?: binds to both N and C portions of alpha-synuclein; for binding constants as measured by ITC, order of magnitude: summary statement; for Kd: read-out: Ka (converted); on Bind to N and C?: key: Y indicates yes; N indicates no
Experimental: (§3) Nanopore analysis and isothermal titration calorimetry were performed as described previously.^21,54

[4] = tested on: preformed alpha-synuclein-GFP foci in yeast strain 2AS; experiment: Yeast recovery assay, fluorescence microscopy of preformed AS-GFP foci; type: cell-based; conditions: for effect on preformed large foci of alpha-synuclein: compound added 6 hours after induction with 5 mM galactose
Experimental: (§4) For Analysis of AS-GFP distribution, the 2AS strain was grown overnight in drop-out media. After normalization of culture density, galactose was administered to a final concentration of 5 mM. Fluorescence images were obtained at zero time, 3 hours, 6 hours, 9 hours and 12 hours. For the yeast recovery assay, yeast cells were obtained after 6 hours induction with 5 mM galactose concentration, washed in galactose free media and the compounds were added to a final concentration of 1 micromolar in a 2 mL reaction mixture. The culture was incubated at 30° C. for 3, 6, and 9 hour intervals. Images were obtained at each interval using an Olympus Infinity (BX51) fluorescence microscope at 100× magnification.

yeast strain 2AS = experiment: Yeast recovery assay, growth of 2AS after 6 hours galactose induction; type: cell-based
[5] = tested on: yeast strain 2AS (2 copies of AS-GFP gene); type: cell-based
Experimental: (§5) Third, the drugs were assayed in a yeast model of Parkinson's Disease, which expresses an alpha-synuclein-Green Fluorescent Protein (AS-GFP) construct under the control of a galactose promoter.
Construction of the 1AS and 2AS strains has been described in detail previously.^55 Strains were grown in YPD supplemented with 30 μg/ml of all amino acids. The OD600 was adjusted to 0.05 in drop-out media (no uracil) at 30° C. Drugs were dissolved in methanol at 0.01 micromolar, 0.1 micromolar, 1 micromolar or 10 micromolar followed by addition of 100 micromolar or 5 mM galactose to a final volume of 10 mL.

[6] = tested on: male Sprague-Dawley rats with increased alpha-synuclein expression; experiment: Forced swim test in ASIA-treated rats; type: in vivo, rat; conditions: for success in forced swim test / vigor in forced swim test: last three minutes of the test
Experimental: as §2, §1
The forced swim test is carried out by immersing the rat in water that is sufficiently deep to force the rat to swim. The forced swim test is scored based on the following criteria:
Vigor and success are measures of motor function. Immobility is thought to be a measure of depression.^59 Based on videos of the forced swim test, the amount of time that each rat was motionless was calculated as a form of scoring depression for each treatment. Statistical analysis was carried out using an ordinary one-way ANOVA and Tukey multiple comparisons test.

[7] = tested on: alpha-synuclein-GFP aggregation in yeast strain 2AS; type: cell-based; conditions: 1 micromolar compound, 5 mM galactose; for AS-GFP foci / fluorescence pattern: up to 12 hours
Experimental: as §5
as §4, with “Fluorescence images were obtained at zero time, 3 hours, 6 hours, 9 hours and 12 hours.” left out

alpha-synuclein [8] = target: T1, alpha-synuclein; experiment: Nanopore analysis of alpha-synuclein (blockade current histograms); type: binding; conditions: 1 micromolar alpha-synuclein, 20 micromolar compound; for nanopore profile (bumping peak / binding): FIG. 3
Experimental: The bifunctional molecules were characterized by four different methods. […] If the compound causes a more compact conformation, then the alpha-synuclein can no longer translocate and it simply bumps into the pore giving rise to a very small change in the blockade current.^44-46
as §3

alpha-synuclein [9] = target: T1, alpha-synuclein; conditions: 10 micromolar compound, shown previously; cited from earlier work
WT yeast = experiment: Yeast growth curves (OD600), toxicity of drugs on WT yeast; type: cell-based; design: effect on growth of WT yeast: dose or concentration left out as unconfirmed; conditions: no alpha-synuclein
[10] = ITC in 1.0M KCl, bifunctional molecules (or monomers) per alpha-synuclein molecule, best fit
[11] = 1 micromolar compound added after 6 hours of 5 mM galactose and wash
[12] = 1 micromolar compound + 5 mM galactose
[13] = 1 micromolar compound + 100 micromolar galactose

Cn1c(=O)c2c(nc(CCCCCCNC3CCc4ccccc43)n2C)n(C)c1=O (racemic) [Compound C8-6-I]
degree of protein aggregation, thioflavin S staining ([1]; ASIA + compound 3 mg/kg): decreases the degree of protein aggregation | degree of protein aggregation, thioflavin S staining ([1]; ASIA + compound 5 mg/kg): decreases the degree of protein aggregation | level of alpha-synuclein staining in substantia nigra ([2]; ASIA + compound 3 mg/kg): reduced | level of alpha-synuclein staining in substantia nigra ([2]; ASIA + compound 5 mg/kg): reduced | increase of Ka for a 10-fold decrease in ionic strength (alpha-synuclein [3]): approximately 10 fold | # of Binding sites (alpha-synuclein [3]; ITC in 100 mM KCl): 1 | Ka (alpha-synuclein [3]; ITC in 100 mM KCl): 560000 M⁻¹ | Ka (alpha-synuclein [3]; ITC in 1.0M KCl): 53000 M⁻¹ | # of Binding sites (alpha-synuclein [3]; [10]): 1 | # Binding sites (alpha-synuclein [3]): 1 | Ka (alpha-synuclein [3]; Table 2, ITC): 53000 M⁻¹ | Bind to N and C? (alpha-synuclein [3]): Y | binding constants as measured by ITC, order of magnitude (alpha-synuclein [3]): ~10^5 M^−1 | fluorescence pattern after compound addition to cells with preformed foci [4, 11]: By 9 hours, the peripheral location is restored and the halo reappears | effect on preformed large foci of alpha-synuclein [4]: can cause preformed large foci of alpha-synuclein to dissipate | time of resumption of growth (yeast strain 2AS; [11]): ~8 h | time of resumption of growth (yeast strain 2AS; 10 micromolar compound added after 6 hours of 5 mM galactose and wash): about 6 hours | growth of 2AS yeast ([5]; 0.1 micromolar compound + 5 mM galactose): normal growth | growth of 2AS yeast [5, 12]: essentially normal | immobility in forced swim test ([6]; ASIA + compound 3 mg/kg): improved | success in forced swim test ([6]; ASIA + compound 3 mg/kg): improved success | vigor in forced swim test ([6]; ASIA + compound 3 mg/kg): improved vigor | immobility in forced swim test ([6]; ASIA + compound 5 mg/kg): further improved | success in forced swim test ([6]; ASIA + compound 5 mg/kg): further improved success | vigor in forced swim test ([6]; ASIA + compound 5 mg/kg): further improved vigor | AS-GFP foci / fluorescence pattern [7]: by 12 hours the peripheral halo is restored | major peak, blockade current (alpha-synuclein [8]): −68 pA | nanopore profile (bumping peak / binding) (alpha-synuclein [8]): do not have a significant bumping peak

Cn1c(=O)c2c(nc(CCCCCCN3CCCC3c3cccnc3)n2C)n(C)c1=O (racemic) [Compound C8-6-N]
increase of Ka for a 10-fold decrease in ionic strength (alpha-synuclein [3]): approximately 10 fold | # of Binding sites (alpha-synuclein [3]; ITC in 100 mM KCl): 1 | Ka (alpha-synuclein [3]; ITC in 100 mM KCl): 480000 M⁻¹ | Ka (alpha-synuclein [3]; ITC in 1.0M KCl): 43000 M⁻¹ | # of Binding sites (alpha-synuclein [3]; [10]): 1 | # Binding sites (alpha-synuclein [3]): 1 | Ka (alpha-synuclein [3]; Table 2, ITC): 43000 M⁻¹ | Bind to N and C? (alpha-synuclein [3]): Y | binding constants as measured by ITC, order of magnitude (alpha-synuclein [3]): ~10^5 M^−1 | effect on preformed large foci of alpha-synuclein [4]: can cause preformed large foci of alpha-synuclein to dissipate | growth of 2AS yeast [5, 12]: essentially normal | AS-GFP foci / fluorescence pattern [7]: similar | major peak, blockade current (alpha-synuclein [8]): −55 pA | nanopore profile (bumping peak / binding) (alpha-synuclein [8]): do not have a significant bumping peak

Cn1c(=O)c2c(ncn2C)n(C)c1=O [Caffeine, caffeine, reference compound]
major peak, blockade current, compound alone (alpha-synuclein [9]): about −76 pA | # of Binding sites (alpha-synuclein [3]; [10]): 1 | # Binding sites (alpha-synuclein [3]): 1 | Bind to N and C? (alpha-synuclein [3]): Y | formation of foci delayed until (time after induction) [7]: 9 h

NC1Cc2ccccc2C1 [Compound 2-aminoindan, 2-aminoindan, reference compound]
level of alpha-synuclein staining in substantia nigra ([2]; ASIA + compound 3 mg/kg): considerably increased | immobility in forced swim test ([6]; ASIA + compound 3 mg/kg): significantly increases immobility | success in forced swim test ([6]; ASIA + compound 3 mg/kg): decreased success | vigor in forced swim test ([6]; ASIA + compound 3 mg/kg): decreased vigor

CN(C)C(=N)N=C(N)N [Metformin, metformin, reference compound]
major peak, blockade current, compound alone (alpha-synuclein [9]): about −65 pA | # of Binding sites (alpha-synuclein [3]; [10]): 1 | Kd (alpha-synuclein [3]; ITC in 1.0M KCl): 109 nM | # Binding sites (alpha-synuclein [3]): 3 | Kd (alpha-synuclein [3]; Table 2, ITC): 111 nM | Bind to N and C? (alpha-synuclein [3]): N | growth of 2AS yeast [5, 13]: rate of growth which is similar to that shown by the WT strain | formation of foci delayed until (time after induction) [7]: 9 h

CC(N)Cc1ccccc1 (stereo not drawn) [amphetamine]
effect on growth of WT yeast (WT yeast): no evidence of toxicity | growth of 2AS yeast [5, 13]: significant reduction of growth | time at which complete filling of the cell with AS-GFP occurs [7]: 6 h | AS-GFP foci / fluorescence pattern [7]: larger foci appear at earlier times
